According to patent publication US6524785B1, “Perfusion and/or preservation and/or re-perfusion solution during organ transplant” (Centre National de la Recherche Scientifique, priority 1998, dated 2003):
Entries after “also recorded” stand apart in the source; their conditions may differ.

Tests used:
isolated, perfused heart = experiment: Isolated perfused rat heart: cardioplegic arrest, cold ischemia and re-perfusion, hemodynamic and metabolic evaluation (P-31 MRS, biochemistry); details: L-arginine added versus without
Experimental: The hearts are removed from male Sprague Dawley rats of 350 to 375 g and anaesthetised by intraperitoneal injection of pentobarbital. The hearts are then perfused following the isovolumic contracting heart model. In this model, the heart is perfused with Krebs-Henseleit buffer at 37° C., without phosphate, in a retrograde manner via the aorta, at a constant pressure of 100 mmHg An incompressible balloon, placed in the left ventricle makes the contraction isovolumic. This model makes it possible to evaluate the cardiac function, by the developed pressure and to measure the compliance by measurement of the diastolic pressure. […]
The signals observed in the RMN spectrum of the P-31 are those of inorganic phosphate, phosphocreatine and the 3 phosphorous molecules of ATP. […] The areas and the positions of resonance are determined by using the NMR1 program (New Methods Research Syracuse, N.Y.) on an IBM Risc System 6000 operating system.
The areas measured are corrected by taking into consideration the saturation factors determined by comparing the acquired spectrums to completely relaxed spectrums. The areas of different metabolites can thus be converted into concentrations by referring to the ATPβ area, taking into consideration a cytosolic concentration of 11.6 mM for the ATP (determined by high pressure liquid chromatography). […]

transplanted heart = experiment: Heterotopic transplant of rat heart, 3 hours of ischemia, function and energy metabolism after 1 hour and 24 hours of re-perfusion; format: in vivo; details: with versus without arginine, after 1 hour and after 24 hours of re-perfusion; first results
Experimental: FIG. 20 represents, within the framework of a protocol corresponding to 3 hours of ischemia with arrest and preservation in CRMBM solution, the ratios of different energy metabolites after 1 hour of re-perfusion (represented by the white histogram marked with black lines) and 24 hours of re-perfusion (represented by the histogram with white and black hatching).
The cardiac function, as represented by the derivative of developed pressure (dP/dtmax), is indicated by the black histogram without arginine, and by the histogram with white and black hatching with arginine.
A heterotopic transplant of rat heart model has been developed, working where the function and the metabolism can be simultaneously analysed. In this model the functional and metabolic recovery has thus been studied after 1 hour and 24 hours of re-perfusion after ischemia of 3 hours, protected by the invention solution.
The study has made it possible to analyse the long term recovery of the heart, comparing 1 hour and 24 hours of re-perfusion.

N=C(N)NCCC[C@H](N)C(=O)O [L-arginine]
content in adenylic nucleotides (isolated, perfused heart; 8 hours of ischemia and re-perfusion, HPLC): without however affecting | pool of amino acids during re-perfusion (isolated, perfused heart; protocol 3: 8 hours of ischemia, HPLC in frozen hearts): greater pool of amino acids; also recorded: limits the depletion | functional recovery of the heart, effect of L-arginine (transplanted heart): beneficial effect
